In ChEMBL document CHEMBL4118129, “Evaluation of novel TGR5 agonist in combination with Sitagliptin for possible treatment of type 2 diabetes” (Bioorg Med Chem Lett, 2018):

Columns and labels:
Type in all cases: ADME, organism-based
[1] = Cmax in C57BL/6 mouse at 30 mg/kg, po by LC-MS/MS analysis; parameters: dose 30 mg/kg, route oral; conditions: in vivo
[2] = Tmax in C57BL/6 mouse at 30 mg/kg, po by LC-MS/MS analysis; conditions: in vivo
[3] = AUC in C57BL/6 mouse at 30 mg/kg, po by LC-MS/MS analysis; conditions: in vivo
[4] = Terminal half life in C57BL/6 mouse at 30 mg/kg, po by LC-MS/MS analysis; conditions: in vivo, read-out: beta t1/2 (converted)

`COc1ccc(C(C)(C)c2cnc(SCCOCc3ccc(C#N)cc3)n2-c2ccc(F)cc2)cc1OC` showed a Cmax [1] of 2100 nM, a Tmax [2] of 12 min and an AUC [3] of 2.5 µM·h. It also gave a half-life [4] of 60 min.
